Results from ChEMBL document CHEMBL2321680, “High-Throughput Selectivity Assays for Small-Molecule Inhibitors of β-Catenin/T-Cell Factor Protein-Protein Interactions” (ACS Med Chem Lett, 2013).

Key:
TCF4/beta-catenin [1] = molecular target: T1, TCF4/beta-catenin (Homo sapiens, UniProt P35222+Q9NQB0); test: Inhibition of human […]/Tcf4 interaction after 1 hr by fluorescence polarization assay; type: protein-complex assay
Homo sapiens [2] = species: Homo sapiens; test: Selectivity ratio of Ki for human […]/APC-R3 interaction to Ki for human […]/Tcf4 interaction by alphascreen assay
Homo sapiens [3] = species: Homo sapiens; test: Selectivity ratio of Ki for human […]/E-cadherin interaction to Ki for human […]/Tcf4 interaction by alphascreen assay
TCF4/beta-catenin [4] = molecular target: T1, TCF4/beta-catenin; test: Inhibition of human beta-catenin/Tcf4 interaction after 1 hr by alphascreen assay
[5] = molecular target: Catenin beta-1/Adenomatous polyposis coli protein (Homo sapiens); test: Inhibition of human beta-catenin/APC-R3 interaction after 1 hr by alphascreen assay
[6] = molecular target: Catenin beta-1/Cadherin-1 (Homo sapiens); test: Inhibition of human beta-catenin/E-cadherin interaction after 1 hr by alphascreen assay
Homo sapiens [7] = species: Homo sapiens; test: Selectivity ratio of Ki for human […]/APC-R3 interaction to Ki for human […]/Tcf4 interaction by fluorescence polarization assay
Homo sapiens [8] = species: Homo sapiens; test: Selectivity ratio of Ki for human […]/E-cadherin interaction to Ki for human […]/Tcf4 interaction by fluorescence polarization assay
[9] = molecular target: Catenin beta-1/Adenomatous polyposis coli protein (Homo sapiens); test: Inhibition of human beta-catenin/APC-R3 interaction after 1 hr by fluorescence polarization assay
[10] = molecular target: Catenin beta-1/Cadherin-1 (Homo sapiens); test: Inhibition of human beta-catenin/E-cadherin interaction after 1 hr by fluorescence polarization assay

T1 sequence (P35222 whole entry): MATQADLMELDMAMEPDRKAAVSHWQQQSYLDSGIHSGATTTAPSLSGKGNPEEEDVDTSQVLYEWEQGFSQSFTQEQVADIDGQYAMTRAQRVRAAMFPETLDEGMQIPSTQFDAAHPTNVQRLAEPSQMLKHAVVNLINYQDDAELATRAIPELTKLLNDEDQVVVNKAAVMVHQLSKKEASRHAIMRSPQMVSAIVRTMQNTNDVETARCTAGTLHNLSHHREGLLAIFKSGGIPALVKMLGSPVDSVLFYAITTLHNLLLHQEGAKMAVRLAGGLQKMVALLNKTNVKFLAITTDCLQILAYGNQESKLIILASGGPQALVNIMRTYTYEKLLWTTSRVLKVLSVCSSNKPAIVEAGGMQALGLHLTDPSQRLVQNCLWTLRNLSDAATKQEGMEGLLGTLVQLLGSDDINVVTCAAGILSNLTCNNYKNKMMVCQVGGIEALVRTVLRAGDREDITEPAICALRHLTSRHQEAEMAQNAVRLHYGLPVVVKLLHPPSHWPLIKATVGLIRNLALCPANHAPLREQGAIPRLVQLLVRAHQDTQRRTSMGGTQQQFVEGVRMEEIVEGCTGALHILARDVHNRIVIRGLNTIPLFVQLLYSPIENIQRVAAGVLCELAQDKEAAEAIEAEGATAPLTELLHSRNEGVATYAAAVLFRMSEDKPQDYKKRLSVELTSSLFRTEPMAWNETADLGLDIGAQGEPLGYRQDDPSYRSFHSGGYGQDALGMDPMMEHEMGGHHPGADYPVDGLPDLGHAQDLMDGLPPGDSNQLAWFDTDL
T1 sequence (Q9NQB0 whole entry): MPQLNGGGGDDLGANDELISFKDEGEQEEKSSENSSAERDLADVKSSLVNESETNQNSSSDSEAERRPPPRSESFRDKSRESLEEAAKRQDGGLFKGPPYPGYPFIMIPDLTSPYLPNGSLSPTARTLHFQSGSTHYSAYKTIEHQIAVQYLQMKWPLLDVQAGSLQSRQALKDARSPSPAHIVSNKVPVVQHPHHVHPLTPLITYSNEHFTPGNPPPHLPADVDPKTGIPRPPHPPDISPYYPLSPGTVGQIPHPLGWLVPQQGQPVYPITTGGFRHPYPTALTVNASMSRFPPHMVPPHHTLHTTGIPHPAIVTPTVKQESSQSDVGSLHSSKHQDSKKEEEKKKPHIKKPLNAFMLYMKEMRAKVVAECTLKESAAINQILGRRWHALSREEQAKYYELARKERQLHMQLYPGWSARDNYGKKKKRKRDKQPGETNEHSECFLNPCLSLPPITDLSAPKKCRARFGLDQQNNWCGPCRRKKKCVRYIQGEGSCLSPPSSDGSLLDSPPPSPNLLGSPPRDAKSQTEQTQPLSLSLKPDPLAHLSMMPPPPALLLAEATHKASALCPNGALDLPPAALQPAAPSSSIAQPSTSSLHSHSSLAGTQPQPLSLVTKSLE

Row | Ratio Ki (Homo sapiens [2]) | Ratio Ki (Homo sapiens [3]) | Ki (TCF4/beta-catenin [4]) [µM] | Ki [5] [µM] | Ki [6] [µM] | Ratio Ki (Homo sapiens [7]) | Ratio Ki (Homo sapiens [8]) | Ki [9] [µM] | Ki [10] [µM] | SMILES | Ki (TCF4/beta-catenin [1]) [µM]
1 |  |  |  |  |  |  |  |  |  | COc1c(C[C@@H](C)OC(=O)Oc2ccc(O)cc2)c2c3c(C[C@@H](C)OC(=O)c4ccccc4)c(OC)c(=O)c4c(O)cc(OC)c(c5c(OC)cc(O)c(c1=O)c52)c43 [CALPHOSTIN C] | 18
2 | 3.8 | 4.8 | 29 | 110 | 140 |  |  |  |  | COc1cccc(/C=C2/SC(=S)N(CCC(=O)O)C2=O)c1OC | 
3 | 10.5 | 3.3 | 21 | 220 | 68 | 25 | 16.3 | 400 | 260 | C=CCN1C(=O)/C(=N\NC(=O)C(=O)Nc2cccc(C(=O)O)c2)c2ccccc21 | 16
